# From BindingDB's records for PubMed 33650861 (Sichuan University, 2021)
# Assay: Inhibition of BET (unknown origin)
structure (smiles),measurement,value
Cc1sc2c(c1C)C(c1ccc(Cl)cc1)=N[C@@H](CC(=O)OC(C)(C)C)c1nnc(C)n1-2,IC50,500 nM
